{
  "source": "patent US9650674B2",
  "about": "“Nucleic acid probes and methods of using the same” (Board of Trustees University of Arkansas, priority 2012, dated 2017)",
  "key": {"[1]": {"experiment": "Alkaline denaturing of probes, kinetic fluorescence", "format": "physicochemical", "conditions": "alkaline buffer", "protocol": "Lastly, the probes' integrity was tested by alkaline denaturing. The probes were treated with alkaline buffer and kinetic detection of the fluorescence was performed. […] AB259.1, AB259.3 and AB259.5 gained 40%, 81%, and 85% of fluorescence, respectively.\n(§1) All cell-free experiments were performed using the Bio-Tek Synergy 5 fluorescent plate reader. Before experiments, optimal excitation and emission wavelengths were determined. For this, excitation and emission were scanned in the ranges of 600-680 nm and 690-705 nm, respectively. The optimal excitation/emission was determined to be 665/703 nm. All kinetic and endpoint measurements were done in a total volume of 100 μl at 37° C. Unless stated otherwise, DNA substrate was used in final concentration 0.5 μM reconstituted in endonuclease activity assay (EAA) buffer (2 mM CaCl2, 5 mM MgCl2, 10 mM Tris-HCl, pH 7.4) in a 96-well plate. After measurement of starting fluorescence, DNase I or tested material (diluted 1:20 urine or 1:100 serum) were added to the reconstituted probe, rapidly mixed and fluorescence was monitored for up to 60 min with 30-sec intervals. In some instances, EDTA (final concentration 200 μM) or NaOH (50 mM) was added to terminate the reaction. For the experiments that involved assessment of fluorescence after DNA denaturing, probes were tested in Cepheid real-time PCR system using Cy5 setting (Sunnyvale, Calif.)."}, "[2]": {"test_system": "WT and DNase I KO mice", "experiment": "Intravital assessment in other organs (bilateral kidney ligation or cationic liposomes)", "conditions": "imaging 3 hours after injection; FIGS. 10A and 10B", "experimental": "To check an ability of probe to measure endonuclease activity on other organs, the renal distribution of AB259.3 probe was challenged by two complementary approaches. First group of mice was subjected to bilateral kidney ligation followed by intravital administration of AB259.3 probe and imaging in 3 hours after injection. […] Another group of mice was injected with AB259.3 probe packed in cationic liposomes in attempt to make probe delivery bioavailable to all organs and tissues and less specific to kidneys.\nMale DNase I KO mice and their WT counterparts at the age 8-10 weeks were used for all experiments. All procedures with mice were performed under general anesthesia with 50 mg/kg ketamine. For subcutaneous administration, mice were injected with 10 μl of 0.1 μM AB259.3 in the dorsal subcutaneous site. For systemic visualization, AB259.3 was injected intravenously at 50 nmol/kg in tail vein. […] Bilateral kidney ligation was performed on anesthetized DNase I KO or WT mice. Renal pedicles were surgically ligated using 4.0 silk sutures. […]\nImaging of live and euthanized mice or their isolated organs were performed using Xenogen IVIS Image System 200 (Caliper Life Sciences, Hopkinton, Mass.) equipped with Living Image® Software. […] Quantification of the manually designated areas was performed based on average radiant efficiency with the fixed min-max dynamic range."}, "[3]": {"test_system": "WT and DNase I KO mice", "experiment": "Intravital imaging of endonuclease activity in kidneys", "text": "At the next step, WT and DNase I KO mice were anesthetized and intravenously administered with 50 nmol/kg of AB259.3 probe followed by intravital imaging using Xenogen-IVIS.\nTo additionally confirm preferential accumulation and processing of AB259.3 probe in kidneys, separate set of mice was deeply anesthetized and subjected to abdominal incision and real-time intravital visualization of left kidney while performing intravenous injection of AB259.3 probe. […] For this, DNase I KO animals were subjected to open surgery that was used to administer 5 μl DNase I (0.1 mg/ml) to subcapsular space of upper ventral zone of left kidney. To control effect of DNase I, additional WT and DNase I KO mice were injected with same volume of the vehicle. Immediately after injection, mice were injected with 50 nmol/kg of AB259.3 probe intravenously and then imaged in a Xenogen-IVIS.\nMale DNase I KO mice and their WT counterparts at the age 8-10 weeks were used for all experiments. All procedures with mice were performed under general anesthesia with 50 mg/kg ketamine. For subcutaneous administration, mice were injected with 10 μl of 0.1 μM AB259.3 in the dorsal subcutaneous site. For systemic visualization, AB259.3 was injected intravenously at 50 nmol/kg in tail vein.\nImaging of live and euthanized mice or their isolated organs were performed using Xenogen IVIS Image System 200 (Caliper Life Sciences, Hopkinton, Mass.) equipped with Living Image® Software."}, "[4]": {"test_system": "NRK-52E cells", "experiment": "Intracellular endonuclease activity in cultured cells, time-lapse microscopy", "format": "cell-based, rat", "conditions": "AB259.3/Lipofectamine LTX complexes", "protocol": "To test whether AB259.3 probe may be delivered intracellularly and thus be used as an indicator of endonuclease activity in live cells, NRK-52E cells were transfected with of AB259.3/Lipofectamine LTX complexes and imaged by time-lapse epifluorescence microscopy every 10 min for 8 hours. A 2.5-3 times increased fluorescence reached plateau in 1 hour after transfection and the cells retained fluorescent dye for the duration of experiment (FIG. 4A). To induce activity of endonucleases, cells were treated with cisplatin or camptothecin and imaged by time-lapse microscopy for Cy5.5 fluorescence. […] Therefore, it was concluded that AB259.3 can be delivered and used for intracellular monitoring of endonuclease activity in live cells. To further determine whether AB259.3 probe can be used in other cell lines, several of them were tested (FIG. 4D). […] It was then determined whether the probe without the loop would be consumed by NRK-52E cells equally to the original loop probe. […] Finally, PCR was used to determine whether the DNA part (as opposed to the fluorophores) of the probes enters the cells in vivo and in vitro.\nRat proximal tubular epithelial NRK-52E cells were used to test the ability of AB259.3 probe to measure endonuclease activity. The cells were seeded in a 24-well plate at 50,000 cells per well in complete DMEM medium supplemented with 10% fetal bovine serum. Cells were transfected with the AB259.3 probe using Lipofectamin LTX and then subjected to spinning disk confocal fluorescent time-lapse microscopy in 628/40-692/40 spectrum every 10 min for 8 hours using Olympus IX-81 image system equipped with Hamamatsu ORCA-ER camera and LiveCell microenvironmental control chamber (Pathology Devices Inc., Westminster, Md.). In separate experiment, cells were treated with either 25 μM cisplatin or 50 μM camptothecin for 8 hours, followed by 1-hour transfection with AB259.3 probe and 8-hour time-lapse imaging session with 10-min intervals using the same microscopy system."}, "[5]": {"test_system": "WT and DNase I KO mice", "experiment": "Cy5.5 fluorescence in organs isolated after intravenous probe injection (Xenogen-IVIS)", "format": "in vivo, mouse", "conditions": "50 nmol/kg intravenous, 1 or 3 hours after injection; FIG. 6", "protocol": "In the next set of experiments, it was tested whether AB259.3 probe is suitable for in vivo measurement of DNase I and endonuclease activity in internal organs. For this, WT and DNase I KO mice were subjected to intravenous administration of AB259.3 probe (50 nmol/kg). The organs including brain, heart, lung, muscle, bone (femur), liver, pancreas, salivary gland, jejunum, spleen, kidney and testicles were collected in 1 or 3 hours after injection and measured for Cy5.5 fluorescence using a Xenogen-IVIS instrument. […] Kidneys, pancreas, salivary glands and lungs were among those that had the most prominent relative increase of Cy5.5 fluorescence in WT mice with markedly lower level of fluorescence in DNase I KO mice. Despite highest absolute fluorescence values in gut and liver, relative gain of fluorescence in these organs was quite modest due to the high background autofluorescence.\nKidney ischemia-reperfusion was performed as previously reported. […] The liposomes were prepared as described previously."}, "[6]": {"test_system": "WT mice", "experiment": "Histological distribution of probe in kidneys", "format": "in vivo, mouse", "conditions": "50 nmol/kg intravenous", "protocol": "It was assessed whether AB259.3 probe is specifically accumulated in any renal compartments or its accumulation in the kidney is simply due to the excretion with urine. For this, WT mice were administered intravenously with 50 nmol/kg of AB259.3 probe and kidneys were collected in 1 or 3 hours, frozen, cryosectioned and examined under fluorescent microscope in 628/40-692/40 spectrum. […] Morphologically, fluorescence was detected mainly in membranous parts of the epithelial cells, such as basolateral and, to lesser extent, at apical surface."}, "[7]": {"experiment": "Heat denaturing and reannealing of hairpin probes (probe integrity)", "format": "physicochemical", "conditions": "ROX internal reference; above background; FIG. 1C", "protocol": "To ensure the integrity of the DNA probes, it was tested whether a heat denaturing of the hairpins would cause an increase in fluorescence, and if a reannealing would reverse it. To compensate for thermal change of fluorophore's emission, the ROX fluorophore was added to tested probes as an internal reference.\nas §1"}},
  "note": "{Cy5.5} = Cy5.5 cyanine dye label",
  "data": [
    {"substance": "[Cy5.5]AACACTCCGATGAGTGTAGAATGT[Cy5.5] (DNA, 5' {Cy5.5}, 3' {Cy5.5}, backbone not given here) [AB259.3, hairpin DNA probe with Cy5.5 at both ends, protruding strand +5]", "values": [
      {"measurement": "gain of fluorescence on alkaline denaturing", "setting": "[1]", "value": 81, "unit": "%"},
      {"measurement": "probe accumulation after bilateral kidney ligation", "setting": "[2]", "value": "accumulation in kidneys was completely abolished"},
      {"measurement": "time to plateau of fluorescence in kidneys, intravital imaging", "setting": "[3]; 50 nmol/kg intravenous, FIGS. 7A and 7B", "value": 10, "unit": "min"},
      {"measurement": "retention of fluorescence by kidneys", "setting": "[3]; 50 nmol/kg intravenous, FIGS. 7C and 7D", "value": "at least 5 hours"},
      {"measurement": "time to plateau of Cy5.5 fluorescence in exposed left kidney, real-time", "setting": "[3]; abdominal incision, intravenous injection, FIG. 7E", "value": 10, "unit": "min"},
      {"measurement": "time to plateau of fluorescence after transfection", "setting": "[4]", "value": 1, "unit": "h"},
      {"measurement": "increase of fluorescence in cells after transfection", "setting": "[4]; FIG. 4A", "value": "2.5-3 times"},
      {"measurement": "organ fluorescence after injection (in words)", "setting": "[5]", "value": "kidneys appeared to be the most visibly distinctive organ"},
      {"measurement": "renal localisation of activated probe at 1 hour", "setting": "[6]; 1 hour", "value": "cortical compartment, and mainly proximal tubules already contained significant amount of activated AB259.3 probe"},
      {"measurement": "renal localisation of activated probe at 3 hours", "setting": "[6]; 3 hours, FIG. 8", "value": "started to appear in medullar compartment and distal tubules"},
      {"measurement": "gain of fluorescence on heat denaturing", "setting": "[7]", "value": 2.8, "unit": "times"}
    ]}
  ]
}
